The record followed here is patent publication US20060014826A1, “Dioxocyclohexane carboxylic acid phenyl amide derivatives for modulating voltage-gated potassium channels and pharmaceutical compositions containing the same” (Wyeth, priority 2004, published 2006).

The target in data set [1] is T1, human Kv1.1/Kvβ1 potassium ion channel complex (Homo sapiens, UniProt Q09470+Q14722).
T1 construct: expressed in transfected cells; host or cells: Xenopus oocytes injected with cRNA
Description: Inhibiting the inactivation of Kv1.1/Kvβ1 potassium ion channel complex, voltage clamp current recordings in Xenopus oocytes. The format is cell-based. The settings on record: relative to control oocytes without test compound, read-out: Percent Increase in Steady State Current (@ concentration shown in parentheses). The method, then:
Compounds useful in this invention were examined for their ability to inhibit the inactivation of the human Kv1.1/Kvβ1 potassium ion channel complex in vitro using electrophysiological current recordings on inactivating Kv1.1/Kvβ1channels expressed in Xenopus oocytes. The following procedure was used.
Xenopus oocytes were harvested from frogs under general anesthesia using aseptic techniques. Oocytes were treated with 2 mg/ml collagenase for 1-1.5 hr, defolliculated, and injected with 40 nL cRNA (a mixture of hKv1.1 and hKvβ1) produced using standard molecular biological techniques (Sambrook, et al., 1989, Molecular Cloning: A Laboratory Manual). The concentration of hKv1.1/hKvβ1 cRNA varies, but was generally about 50 ng/μL hKv1.1 and […] hkβ1.
Currents were recorded using standard voltage clamp amplifiers at room temperature. Recordings were performed in the bath solution “ND-96” containing 96 mM NaCl, 2 mM KCl, 1 mm CaCl2, 1 mM MgCl2, 10 mM HEPES and […] Gentamycin (pH=7.6). The pipette (electrode) solution generally consisted of 3 mM KCl. Electrodes were made from WPI TW150F-4 borosilicate glass (or equivalent) and typically had resistances of 0.5-1.5 Mohms. The standard current—voltage (IV) pulse protocol consisted of voltage steps from −60 mV to +50 mV, in 10 mV increments for 200 ms, at a frequency of one IV set per 2 minutes. Data were digitized and analyzed by standard software packages.
Test compounds where first dissolved in DMSO to an initial concentration of 1-100 mM. Working dilutions of 1:2000 to 1:500 were made in the bath solution for final concentrations in the micromolar range. The bath solutions containing the test compounds were applied by bath perfusion using gravity or pump-driven flow. A minimum of 2 mL (10 times the bath volume) over 3 minutes were flowed for each compound concentration tested. Data were averaged across at least 3 cells tested for each concentration.
Test compounds were examined for their ability to inhibit the inactivation of the steady state portion of the IV curve.

T1 sequence (Q09470 whole entry): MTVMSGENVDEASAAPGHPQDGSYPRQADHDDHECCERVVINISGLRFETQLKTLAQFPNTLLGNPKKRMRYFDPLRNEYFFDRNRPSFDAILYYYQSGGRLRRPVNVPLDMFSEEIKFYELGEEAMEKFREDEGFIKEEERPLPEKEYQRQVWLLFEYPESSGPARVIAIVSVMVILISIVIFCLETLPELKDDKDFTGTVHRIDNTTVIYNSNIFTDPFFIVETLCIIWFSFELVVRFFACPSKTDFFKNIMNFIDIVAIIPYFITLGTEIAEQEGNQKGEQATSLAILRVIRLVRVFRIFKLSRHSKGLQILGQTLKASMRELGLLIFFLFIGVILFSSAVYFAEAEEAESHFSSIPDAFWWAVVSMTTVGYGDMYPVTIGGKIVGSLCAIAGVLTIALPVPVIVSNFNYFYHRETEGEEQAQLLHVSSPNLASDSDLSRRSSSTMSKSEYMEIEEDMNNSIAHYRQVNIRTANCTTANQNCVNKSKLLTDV
T1 sequence (Q14722 whole entry): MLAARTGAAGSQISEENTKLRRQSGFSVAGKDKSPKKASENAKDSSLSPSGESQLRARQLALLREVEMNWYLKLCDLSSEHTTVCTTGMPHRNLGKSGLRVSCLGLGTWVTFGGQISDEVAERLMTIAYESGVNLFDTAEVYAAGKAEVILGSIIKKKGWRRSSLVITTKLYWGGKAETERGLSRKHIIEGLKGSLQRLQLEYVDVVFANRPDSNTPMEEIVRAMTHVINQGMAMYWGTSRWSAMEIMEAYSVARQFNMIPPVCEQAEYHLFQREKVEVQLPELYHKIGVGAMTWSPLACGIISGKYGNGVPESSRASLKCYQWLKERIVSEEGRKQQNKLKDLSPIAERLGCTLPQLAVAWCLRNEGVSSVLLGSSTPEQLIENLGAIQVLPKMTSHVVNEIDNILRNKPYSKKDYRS

A word on the melting point: it is the temperature, or range, at which the solid turns liquid. On to `CC1(C)CC(=O)C(C(=S)Nc2ccc(Cl)c(Cl)c2)C(=O)C1` [Example 3, N-(3,4-dichlorophenyl)-4,4-dimethyl-2,6-dioxocyclohexanecarbothioamide], for which the melting point was 113 to 116 °C.

In turn, `CC1(C)CC(=O)C(C(=S)Nc2ccc(Cl)c(C(F)(F)F)c2)C(=O)C1` [Example 4, N-[4-chloro-3-(trifluoromethyl)phenyl]-4,4-dimethyl-2,6-dioxocyclohexane-carbothioamide] came in with a melting point of 101 to 102 °C. Also, in data set [1], the activation at 300 µM is 9%.

For `CC1(C)CC(=O)C(C(=O)Nc2ccc(Cl)c(C(F)(F)F)c2)C(=O)C1` [Example 5, N-[4-chloro-3-(trifluoromethyl)phenyl]-4,4-dimethyl-2,6-dioxocyclohexanecarboxamide], the activation at 50 µM in data set [1] worked out at 16%.

On to `CC1(C)CC(=O)C(C(=O)Nc2ccccc2[N+](=O)[O-])C(=O)C1` [Example 6, 4,4-dimethyl-N-(2-nitrophenyl)-2,6-dioxocyclohexanecarboxamide], for which the activation at 100 µM in data set [1] was 58%.

For the compound `CC1(C)CC(=O)C(C(=O)Nc2ccc(Cl)cc2C(F)(F)F)C(=O)C1` [Example 7, N-[4-chloro-2-(trifluoromethyl)phenyl]-4,4-dimethyl-2,6-dioxocyclohexanecarboxamide], the activation at 100 µM in data set [1] amounted to 45%.

`CC(C)C1CC(=O)C(C(=O)Nc2ccc(Cl)c(Cl)c2)C(=O)C1` (stereo not shown) [Example 10, N-(3,4-dichlorophenyl)-4-isopropyl-2,6-dioxocyclohexanecarboxamide] returned a melting point of 138 °C. Besides, the activation at 50 µM in data set [1] stood at 38%.

In turn, `O=C1CSCC(=O)C1C(=O)Nc1ccc(Cl)c(C(F)(F)F)c1` [Example 11, N-[4-chloro-3-(trifluoromethyl)phenyl]-3,5-dioxotetrahydro-2H-thiopyran-4-carboxamide] registered a melting point of 108 to 110 °C. The activation at 50 µM in data set [1] was 106%.

With `CC1(C)CC(=O)C(C(=O)Nc2ccc([N+](=O)[O-])cc2)C(=O)C1` [Example 12, 4,4-dimethyl-N-(4-nitrophenyl)-2,6-dioxocyclohexanecarboxamide], the activation at 100 µM in data set [1] was determined as 104%.

`CCC1(C)CC(=O)C(C(=O)Nc2cccc(C(F)(F)F)c2)C(=O)C1` (stereo not shown) [Example 13, N-(3-trifluoromethylphenyl)-4-ethyl-4-methyl-2,6-dioxocyclohexanecarboxamide] registered a melting point of 81 to 82 °C. For the same compound, in data set [1], the activation at 50 µM was 9%.

Consider `CCC1(C)CC(=O)C(C(=O)Nc2ccc(Cl)c(C(F)(F)F)c2)C(=O)C1` (stereo not shown) [Example 14, N-(4-chloro-3-trifluoromethylphenyl)-4-ethyl-4-methyl-2,6-dioxocyclohexanecarboxamide], for which the melting point fell in the range of 87 to 88 °C. Moreover, the activation at 50 µM in data set [1] amounted to 98%.

For the compound `CCC1(C)CC(=O)C(C(=O)Nc2ccc(Cl)c(Cl)c2)C(=O)C1` (stereo not shown) [Example 15, N-(3,4-dichlorophenyl)-4-ethyl-4-methyl-2,6-dioxocyclohexanecarboxamide], the melting point fell in the range of 74 to 75 °C. In addition, the activation at 50 µM in data set [1] was found to be 64%.

`CCC1(C)CC(=O)C(C(=O)Nc2ccc(F)c(Cl)c2)C(=O)C1` (stereo not shown) [Example 16, N-(3-chloro-4-fluororphenyl)-4-ethyl-4-methyl-2,6-dioxocyclohexanecarboxamide] returned a melting point of 91 to 92 °C. Besides, the activation at 50 µM in data set [1] is 18%.

In the case of `CCC1(C)CC(=O)C(C(=O)Nc2ccc(C(F)(F)F)cc2)C(=O)C1` (stereo not shown) [Example 17, N-(4-trifluoromethylphenyl)-4-ethyl-4-methyl-2,6-dioxocyclohexanecarboxamide], the melting point fell in the range of 99 to 100 °C. In addition, the activation at 50 µM in data set [1] was 105%.

`CCC1(C)CC(=O)C(C(=O)Nc2cc(C(F)(F)F)cc(C(F)(F)F)c2)C(=O)C1` (stereo not shown) [Example 18, N-(3,5-bis-trifluoromethylphenyl)-4-ethyl-4-methyl-2,6-dioxocyclohexanecarboxamide] yielded a melting point of 72 to 73 °C. Further, the activation at 50 µM in data set [1] stood at 106%.

The compound `CC1(C)CC(=O)C(C(=O)Nc2ccc(Cl)c(C(F)(F)F)c2)C(=O)O1` (stereo not shown) [Example 19, N-[4-chloro-3-(trifluoromethyl)phenyl]-6,6-dimethyl-2,4-dioxotetrahydro-2H-pyran-3-carboxamide] showed a melting point of 156 to 156.4 °C. For the same compound, the activation at 50 µM in data set [1] turned out to be 68%.

For `CC1(C)CC(=O)C(C(=O)Nc2ccc(C(F)(F)F)cc2)C(=O)O1` (stereo not shown) [Example 20, N-[4-(trifluoromethyl)phenyl]-6,6-dimethyl-2,4-dioxotetrahydro-2H-pyran-3-carboxamide], the melting point lay in the range of 175.9 to 176.4 °C. In data set [1], the activation at 50 µM was 17%.

For the compound `CC1(C)CC(=O)C(C(=O)Nc2cccc(C(F)(F)F)c2)C(=O)O1` (stereo not shown) [Example 21, N-[3-(trifluoromethyl)phenyl]-6,6-dimethyl-2,4-dioxotetrahydro-2H-pyran-3-carboxamide], the melting point is 149.6 to 150.1 °C. Further, in data set [1], the activation at 50 µM amounted to 13%.

Regarding `CC1(C)COC(=O)C(C(=O)Nc2cccc(C(F)(F)F)c2)C1=O` (stereo not shown) [Example 24, N-[3-(trifluoromethyl)phenyl]-5,5-dimethyl-2,4-dioxotetrahydro-2H-pyran-3-carboxamide], the activation at 50 µM in data set [1] came to 5%.

On to `CC1(C)COC(=O)C(C(=O)Nc2ccc(C(F)(F)F)cc2)C1=O` (stereo not shown) [Example 25, N-[4-(trifluoromethyl)phenyl]-5,5-dimethyl-2,4-dioxotetrahydro-2H-pyran-3-carboxamide], for which the activation at 50 µM in data set [1] was determined as 10%.

In the case of `CC1(C)CC(=O)C(C(=O)Nc2cc(Cl)cc(Cl)c2)C(=O)C1F` (stereo not shown) [Example 28, 3-Fluoro-4,4-dimethyl-2,6-dioxo-cyclohexanecarboxylic acid(3,5-dichloro-phenyl)-amide], in data set [1], the activation at 50 µM came out at 279%.

Turning to `CC1(C)CC(=O)C(C(=O)Nc2cccc(C(F)(F)F)c2)C(=O)C1c1ccccc1` (stereo not shown) [Example 30, 4,4-Dimethyl-2,6-dioxo-3-phenyl-cyclohexanecarboxylic acid(3-trifluoromethyl-phenyl)-amide], the activation at 50 µM in data set [1] worked out at 8%.

Turning to `CCOC(=O)C1C(=O)C(C(=O)Nc2cccc(C(F)(F)F)c2)C(=O)C2CCCCC21` (stereo not shown) [Example 31, 2,4-Dioxo-3-(3-trifluoromethyl-phenylcarbamoyl)-decahydro-naphthalene-1-carboxylic acid ethyl ester], in data set [1], the activation at 50 µM is 227%.

`CC1(c2ccccc2)CCC(=O)C(C(=O)Nc2cccc(C(F)(F)F)c2)C1=O` (stereo not shown) [Example 32, 3-Methyl-2,6-dioxo-3-phenyl-cyclohexanecarboxylic acid(3-trifluoromethyl-phenyl)-amide]: the activation at 50 µM in data set [1] came to 6%.

Take `COCC1C(=O)C(C(=O)Nc2cccc(C(F)(F)F)c2)C(=O)CC1(C)C` (stereo not shown) [Example 33, 3-Methoxymethyl-4,4-dimethyl-2,6-dioxo-cyclohexanecarboxylic acid (3-trifluoromethyl-phenyl)-amide]: in data set [1], the activation at 50 µM was found to be 1%.

As for `O=C1OC2(CCCC2)OC(=O)C1C(=S)Nc1ccc(Cl)c(C(F)(F)F)c1` [Example 34, 7,9-Dioxo-6,10-dioxa-spiro[4.5]decane-8-carbothioic acid(4-chloro-3-trifluoromethyl-phenyl)-amide], the activation at 300 µM in data set [1] was determined as 95%.
